Patent publication US8168651B2, “Protein kinase modulators” (Cylene Pharmaceuticals, Inc., priority 2008, dated 2012)
Read-outs that look alike come from different tables or passages of the source.

Experiments:
recombinant human PIM1 = recombinant human PIM1 (Homo sapiens (Human), UniProt P11309); test: PIM-1 kinase activity in cell-free in vitro assay; assay type: biochemical; conditions: for inhibition at 0.5 µM: 500 nM compound, read-out: PIM-1: % inh 500 nM
PIM2 = PIM2 (Homo sapiens (Human), UniProt Q9P1W9); test: PIM2 IC50; assay type: biochemical; conditions: Table 45
K-562 [1] = test: Cell proliferation modulatory activity, K-562; assay type: cell-based; conditions: Homo sapiens, K562
[2] = system: HCT-116 human colorectal carcinoma cells; test: Cell-proliferation assay using Alamar Blue dye; assay type: cell-based; conditions: Homo sapiens;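 further: cells exposed to compound for about 4 days, then Alamar Blue added and dye fluorescence read after about 4 h, compared with medium-only control wells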
MV-4-11 [3] = test: Cell proliferation modulatory activity, MV-4-11; assay type: cell-based; conditions: Homo sapiens, MV4-11
Jurkat = test: Cell proliferation modulatory activity, Jurkat; assay type: cell-based; conditions: Homo sapiens
recombinant human CK2 = recombinant human CK2 (Homo sapiens (Human), UniProt P68400); test: CK2 assay (cell-free, 33P-ATP filter plate); assay type: biochemical; conditions: cell-free assay; for inhibition at 0.5 µM: 500 nM compound, read-out: CK2: % inh 500 nM; for IC50: 15 um ATP, read-out: CK2 (15 um ATP) IC50
K-562 [4] = test: Cell proliferation modulatory activity, K-562; assay type: cell-based; conditions: Homo sapiens, K562; K-562 cells; read-out: K-562 (uM), cell proliferation modulatory activity
MV-4-11 [5] = test: Cell proliferation modulatory activity, MV-4-11; assay type: cell-based; conditions: Homo sapiens, MV4-11; MV-4-11 cells; read-out: MV-4-11 (uM), cell proliferation modulatory activity
[6] = HCT-116, read-out: HCT-116 (uM), cell proliferation modulatory activity, HCT-116, second HCT-116 column (c8)
[7] = HCT-116, HCT-116, second HCT-116 column (c8), read-out: HCT-116 (uM), cell proliferation modulatory activity
[8] = HCT-116, second of two HCT-116 columns (c8), read-out: HCT-116 (uM), cell proliferation modulatory activity

Chain of recombinant human PIM1 (P11309 whole entry): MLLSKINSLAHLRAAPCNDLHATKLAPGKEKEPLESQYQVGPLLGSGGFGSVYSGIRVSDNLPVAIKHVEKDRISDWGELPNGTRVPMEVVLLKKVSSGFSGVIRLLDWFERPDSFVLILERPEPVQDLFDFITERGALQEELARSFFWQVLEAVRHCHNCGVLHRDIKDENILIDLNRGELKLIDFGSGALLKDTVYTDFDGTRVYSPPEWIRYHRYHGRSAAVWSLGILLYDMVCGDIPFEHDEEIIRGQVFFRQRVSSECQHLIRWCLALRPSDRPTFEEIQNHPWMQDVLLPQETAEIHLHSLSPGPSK
Chain of recombinant human CK2 (P68400 whole entry): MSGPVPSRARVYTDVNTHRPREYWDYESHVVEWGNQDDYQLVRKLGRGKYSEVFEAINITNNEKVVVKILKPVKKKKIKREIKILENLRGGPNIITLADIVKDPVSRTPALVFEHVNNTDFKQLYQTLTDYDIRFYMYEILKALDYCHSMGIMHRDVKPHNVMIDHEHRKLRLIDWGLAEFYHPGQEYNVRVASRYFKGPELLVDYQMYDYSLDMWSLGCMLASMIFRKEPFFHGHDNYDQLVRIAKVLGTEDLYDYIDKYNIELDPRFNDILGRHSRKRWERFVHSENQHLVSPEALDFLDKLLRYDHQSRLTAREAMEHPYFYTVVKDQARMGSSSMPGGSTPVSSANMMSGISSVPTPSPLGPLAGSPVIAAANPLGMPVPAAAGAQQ
Chain of recombinant human CK2 (P67870 whole entry partner): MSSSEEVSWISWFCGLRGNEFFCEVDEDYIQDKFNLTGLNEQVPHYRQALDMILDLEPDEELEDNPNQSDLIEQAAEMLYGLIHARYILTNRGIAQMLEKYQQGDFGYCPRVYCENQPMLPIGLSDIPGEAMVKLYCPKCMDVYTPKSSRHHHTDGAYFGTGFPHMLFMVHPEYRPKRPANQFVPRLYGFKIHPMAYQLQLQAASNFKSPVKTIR
Chain of PIM2 (Q9P1W9 whole entry): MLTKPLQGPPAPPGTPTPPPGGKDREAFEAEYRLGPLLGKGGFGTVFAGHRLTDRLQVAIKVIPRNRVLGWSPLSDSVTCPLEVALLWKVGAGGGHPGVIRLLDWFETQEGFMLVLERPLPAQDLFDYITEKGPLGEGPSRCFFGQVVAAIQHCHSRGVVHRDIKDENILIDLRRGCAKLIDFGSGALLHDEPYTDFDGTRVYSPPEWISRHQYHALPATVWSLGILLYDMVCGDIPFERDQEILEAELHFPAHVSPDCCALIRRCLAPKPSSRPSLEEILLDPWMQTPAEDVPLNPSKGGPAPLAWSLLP

Row | SMILES | IC50 (recombinant human PIM1; Table 45) [nM] | IC50 (PIM2) [nM] | IC50 (K-562 [1]) [µM] | inhibition at 0.5 µM (recombinant human PIM1; cell-free assay) [%] | IC50 (MV-4-11 [3]) [µM] | IC50 [2, 7] [µM] | further results
1 | CN(C)CCNc1nc2c(-c3nc[nH]n3)cccc2c2cnccc12 | < 5000 | > 1100 | – | – | – | – | –
2 | c1cncc(CNc2nc3c(-c4nc[nH]n4)cccc3c3cnccc23)c1 | < 500 | > 1100 | – | – | – | – | –
3 | C#Cc1cccc(Nc2nc3cc(C(=O)O)ccc3c3cnc(NCC4CCCO4)nc23)c1 (stereo not shown) [drawing 1605] | – | – | > 10 | 1.48 | 0.284 | – | IC50 [2, 6]: > 10 µM; IC50 (Jurkat): 2.04 µM
4 | O=C(O)c1ccc2c(c1)nc(NCc1ccccn1)c1ccncc12 | – | – | > 10 | 14.3 | > 10 | > 10 | inhibition at 0.5 µM (recombinant human CK2): 96.6%
5 | O=C(O)c1ccc2c(c1)nc(NCc1cccc3ccccc13)c1ccncc12 | – | – | > 10 | 15.6 | – | > 10 | –
6 | O=C(O)c1ccc2c(c1)nc(NC1CC1)c1nc(Nc3ccc(F)cc3F)ncc12 | – | – | > 10 | – | 2.29 | > 10 | –
7 | c1cc(-c2nc[nH]n2)c2nc(NCc3ccncc3)c3ccncc3c2c1 | < 500 | < 1000 | – | – | – | – | –
8 | O=C(O)c1cc(F)cc2c1nc(Nc1cccc(Cl)c1)c1ccncc12 | > 1100 | > 1100 | – | – | – | – | –
9 | COc1ccc(CCNc2nc3cc(C(=O)O)ccc3c3cnccc23)cc1OC | – | – | > 10 | 9.85 | > 10 | > 10 | inhibition at 0.5 µM (recombinant human CK2): 99%
10 | Cc1cnc(CNC(=O)c2ccc3c(c2)nc(N2CCN(C)CC2)c2ccsc23)cn1 | – | – | > 10 | 37.3 | > 10 | > 10 | inhibition at 0.5 µM (recombinant human CK2): -15%
11 | FC(F)(F)c1cccc(Nc2nc3cc(-c4nnn[nH]4)ccc3c3ccsc23)c1 | – | – | – | 10.8 | – | – | inhibition at 0.5 µM (recombinant human CK2): 17.4%; IC50 (K-562 [4]): > 10 µM; IC50 (MV-4-11 [5]): 1.1 µM; IC50 [2, 8]: > 10 µM
12 | Fc1ccc(Nc2nc3cc(-c4nnn[nH]4)ccc3c3ccsc23)cc1 | – | – | – | 54.7 | – | – | inhibition at 0.5 µM (recombinant human CK2): 30.3%; IC50 (recombinant human PIM1; cell-free assay): 738 nM; IC50 (K-562 [4]): > 10 µM; IC50 (MV-4-11 [5]): > 10 µM; IC50 [2, 8]: > 10 µM
13 | NC(=O)c1cc(F)cc2c1nc(Nc1cccc(Cl)c1)c1ccncc12 | < 1000 | > 1100 | – | – | – | – | –
14 | O=C(O)c1ccc2c(c1)nc(N1CCC(N3CCOCC3)CC1)c1ccncc12 | – | – | > 10 | 20.7 | > 10 | > 10 | inhibition at 0.5 µM (recombinant human CK2): 90.5%; IC50 (recombinant human PIM1; cell-free assay): 310 nM
15 | C#Cc1cccc(Nc2nc3cc(C(=O)O)ccc3c3cnc(NCCOCC)nc23)c1 | – | – | > 10 | 12.1 | 0.141 | – | IC50 (Jurkat): 1.13 µM
16 | CN1CCN(c2nc3c(-c4nc[nH]n4)cccc3c3cnccc23)CC1 | < 1000 | > 1100 | – | – | – | – | –
17 | CN1CCC(CNc2nc3c(-c4nnc[nH]4)cccc3c3cnccc23)CC1 | < 500 | > 1100 | – | – | – | – | –
18 | O=C(O)c1ccc2c(c1)nc(Nc1ccccc1)c1nc(NCCN3CCOCC3)ncc12 | – | – | 1.16 | 30.6 | 0.358 | – | IC50 (Jurkat): 5.7 µM
19 | Cc1ccccc1Nc1nc2cc(C(=O)O)ccc2c2cnccc12 | – | – | > 10 | 92.3 | 0.985 | > 10 | IC50 (recombinant human PIM1; cell-free assay): 158 nM; IC50 (Jurkat): 15.7 µM
20 | O=C(O)c1ccc2c(c1)nc(Nc1ccccc1)c1nc(NCCO)ncc12 | – | – | > 10 | 45.6 | > 10 | – | –
21 | c1cc(-c2nc[nH]n2)c2nc(NCCN3CCOCC3)c3ccncc3c2c1 | < 5000 | > 1100 | – | – | – | – | –

Row | SMILES | IC50 (recombinant human PIM1; Table 45) [nM] | IC50 (PIM2) [nM] | IC50 (K-562 [1]) [µM] | inhibition at 0.5 µM (recombinant human PIM1; cell-free assay) [%] | IC50 (MV-4-11 [3]) [µM] | IC50 [2, 7] [µM] | further results
22 | Fc1ccc(Nc2nc3cc(-c4nnn[nH]4)ccc3c3ccsc23)cc1Cl | – | – | – | 29.1 | – | – | inhibition at 0.5 µM (recombinant human CK2): 37.6%; IC50 (K-562 [4]): > 10 µM; IC50 (MV-4-11 [5]): 0.721 µM; IC50 [2, 8]: > 10 µM
23 | COC(=O)c1ccc2c(c1)nc(NC1CC1)c1nc(C#N)ncc12 | – | – | 1.34 | 2.81 | – | > 10 | –
24 | Fc1cc(-c2nnc[nH]2)c2nc(Nc3cccc(Cl)c3)c3ccncc3c2c1 [drawing 2259] | < 1000 | < 1000 | – | – | – | – | –
25 | O=C(O)c1ccc2c(c1)nc(Nc1cccc(Cl)c1)c1nc(NC3CC3)ncc12 | – | – | 0.158 | – | 0.257 | – | IC50 [2, 6]: 7.82 µM; IC50 (Jurkat): 1.29 µM
26 | CNc1ncc2c(n1)c(Nc1ccc(F)c(Cl)c1)nc1cc(C(=O)O)ccc12 | – | – | > 10 | 18.6 | 0.655 | – | IC50 (Jurkat): 1.24 µM
27 | O=C(O)c1ccc2c(c1)nc(NCCc1ccccn1)c1ccncc12 | – | – | > 10 | -8.95 | > 10 | > 10 | inhibition at 0.5 µM (recombinant human CK2): 96.1%
28 | Clc1ccc(Nc2nc3cc(-c4nnn[nH]4)ccc3c3ccsc23)cc1 | – | – | – | 40.4 | – | – | inhibition at 0.5 µM (recombinant human CK2): 23.9%; IC50 (K-562 [4]): > 10 µM; IC50 (MV-4-11 [5]): > 10 µM; IC50 [2, 8]: > 10 µM
29 | c1ccc(CNc2nc3c(-c4nc[nH]n4)cccc3c3cnccc23)nc1 | < 500 | < 500 | – | – | – | – | –
30 | Cc1cccc(N2CCN(c3nc4cc(C(=O)O)ccc4c4cnccc34)CC2)c1 | – | – | > 10 | 33.7 | – | > 10 | –
31 | C#Cc1cccc(Nc2nc3cc(C(=O)O)ccc3c3cnc(NC4CCNCC4)nc23)c1 | – | – | > 10 | 29 | 0.237 | – | –
32 | Fc1cc(Cl)cc(Nc2nc3cc(-c4nnn[nH]4)ccc3c3ccsc23)c1 | – | – | – | 22.9 | – | – | inhibition at 0.5 µM (recombinant human CK2): 45.4%; IC50 (K-562 [4]): > 10 µM; IC50 [2, 8]: > 10 µM
33 | O=C(O)c1cc(F)cc2c1nc(Nc1cccc(Cl)c1)c1cnccc12 | > 1100 | > 1100 | – | – | – | – | –
34 | O=C(O)c1ccc2c(c1)nc(NC1CC1)c1nc(Nc3ccc(F)c(F)c3)ncc12 | – | – | > 10 | 14.1 | 1.86 | > 10 | inhibition at 0.5 µM (recombinant human CK2): 96.3%
35 | O=C(O)c1ccc2c(c1)nc(Nc1ccc(F)c(Cl)c1)c1nc(NC3CC3)ncc12 | – | – | > 10 | 6.63 | > 10 | – | IC50 (Jurkat): 1.54 µM
36 | CCN1CCCC1CNc1nc2c(-c3nc[nH]n3)cccc2c2cnccc12 (stereo not shown) | > 1100 | > 1100 | – | – | – | – | –
37 | O=C(O)c1ccc2c(c1)nc(NC1CC1)c1nc(NCC3CC3)ncc12 | – | – | – | 15.7 | – | > 10 | IC50 (recombinant human CK2): 8 nM; IC50 (Jurkat): 4.41 µM
38 | CCOCCNc1ncc2c(n1)c(NC1CC1)nc1cc(C(=O)O)ccc12 | – | – | – | -8.19 | – | > 10 | IC50 (recombinant human CK2): 58 nM; IC50 (Jurkat): 18.1 µM
39 | NC(=O)c1ccc2c(c1)nc(NC1CC1)c1nc(NC3CC3)ncc12 | – | – | – | -10.8 | – | 1.33 | IC50 (recombinant human CK2): 135 nM; IC50 (Jurkat): 0.504 µM
40 | Cc1cccc(Nc2nc3cc(C(=O)O)ccc3c3cnccc23)c1 | – | – | > 10 | 86.7 | 0.593 | – | IC50 (recombinant human PIM1; cell-free assay): 177 nM; IC50 (Jurkat): 3.45 µM
41 | Fc1cc(-c2nnc[nH]2)c2nc(Nc3cccc(Cl)c3)c3ccncc3c2c1 [drawing 2269] | > 1100 | > 1100 | – | – | – | – | –
